The values that follow come from patent US5250542A, “Peripherally selective piperidine carboxylate opioid antagonists” (Eli Lilly and Company, priority 1992, dated 1993).

The structures appear in SMILES notation. Where a name gives a salt, the structure may show the parent alone. Read-outs that look alike come from different tables or passages of the source. Bounds are passed on as bounds.

One test concerns the target T1, mu receptor (Rattus norvegicus, UniProt P33535).
T1 construct: rat whole brain minus cerebellum for mu was homogenized; from tissue; host or cells: brain of male Sprague Dawley rats, whole brain minus cerebellum, homogenate fraction
Description: opioid receptor binding assay, [3H] NAL (tritiated naloxone), mu receptor. Set-up: species or system rat (Male Sprague Dawley), brain minus cerebellum. The settings on record: for inhibition at 0.01 µM / inhibition at 0.1 µM: 20 min. In a few lines:
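Displacement of [3H]naloxone was measured on rat whole brain minus cerebellum membranes, preincubated 20 min and incubated 20 min at 37° C, with filtration separating bound ligand. Ki was derived from IC50 and ligand KD. Percent displacement was also recorded at 10 nM and 100 nM test compound.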

Test [1] concerns the target T2, peripheral opioid receptors (Mus musculus, UniProt P42866).
T2 construct: Mice maintained (6 mice/cage) on 0.01M saccharin water with 1 g/1 morphine sulfate; from tissue; host or cells: living morphine-maintained mice (in vivo test; endogenous receptor)
Description: precipitated diarrhea in morphine-maintained mice (peripheral opioid activity) and comparison with the writhing test. The format is in vivo. More on the design: ED50 (diarrhea): unit not given beside the values. The settings on record: for Ratio (AD50 mouse writhing test / ED50 mouse diarrhea test): higher ratio = greater relative antagonism of peripheral opioid receptors; for ED50: mouse, 0.5 h; for ED50 / ED50 (diarrhea): morphine-maintained mice, antagonist subcutaneous or oral, 30 min observation; for ED50 (diarrhea): 30 min. The essentials: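 Morphine-dependent mice (1 g/l morphine sulfate in drinking water ≥10 days, withdrawn 45 min before dosing) received antagonist subcutaneously or orally, 5 mice/dose. Diarrhea (and jumping) were scored over 30 min and doses lowered to find the diarrhea threshold. Peripheral selectivity was taken as writhing AD50 divided by diarrhea ED50.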
For orientation: In writhing tests, fewer writhes than in controls are read as antinociception.

In another test the target is T3, opioid receptor (Mus musculus, UniProt P42866).
T3 construct: Five CF-1 male mice (Charles River, Portage, Mich.); from tissue; host or cells: living CF-1 male mice (in vivo test; endogenous receptor)
Description: mouse writhing analgesis test: block of morphine-induced analgesia. The format is in vivo, CF-1 male mice. More on the design: unit not given here. The settings on record: dose of antagonist that reduced the inhibition of writhing produced by 1.25 mg/kg morphine sulfate to 50%, subcutaneous, 20 min before acetic acid. In a few lines:
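Male CF-1 mice (~20 g, fasted overnight, n=5) dosed subcutaneously 20 min before i.p. 0.6% acetic acid; writhes counted for 10 min starting 5 min post-injection. Antagonism measured as blockade of morphine-induced inhibition of writhing, percent versus vehicle controls; ED50 defined as 50% writhing inhibition.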

The mark [2] stands for this setting: 10 nM test compound, [3H] naloxone 0.5 nM, read-out: % displacement at 10 nM.
Where [3] appears, read: 100 nM test compound, [3H] naloxone 0.5 nM, read-out: % displacement at 100 nM.
[4] abbreviates: read-out: % displacement at 100 nM.
The mark [5] stands for this setting: read-out: % displacement at 10 nM.
The mark [6] stands for this setting: read-out: % displacement at 10 nM, 10 nM test compound, [3H] naloxone 0.5 nM.
[7] abbreviates: read-out: % displacement at 100 nM, 100 nM test compound, [3H] naloxone 0.5 nM.

T2 sequence (P42866 whole entry): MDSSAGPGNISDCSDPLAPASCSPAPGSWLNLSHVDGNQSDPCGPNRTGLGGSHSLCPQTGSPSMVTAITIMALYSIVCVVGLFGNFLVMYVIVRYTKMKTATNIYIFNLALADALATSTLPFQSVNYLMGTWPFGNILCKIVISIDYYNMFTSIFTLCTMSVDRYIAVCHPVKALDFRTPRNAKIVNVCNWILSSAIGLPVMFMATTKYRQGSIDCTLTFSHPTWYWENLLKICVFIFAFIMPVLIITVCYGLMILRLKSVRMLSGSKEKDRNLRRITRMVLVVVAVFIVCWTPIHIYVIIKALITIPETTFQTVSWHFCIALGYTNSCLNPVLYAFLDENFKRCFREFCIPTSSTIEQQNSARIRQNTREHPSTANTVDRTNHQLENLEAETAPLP
T3 sequence (P42866 whole entry): as above
T1 sequence (P33535 whole entry): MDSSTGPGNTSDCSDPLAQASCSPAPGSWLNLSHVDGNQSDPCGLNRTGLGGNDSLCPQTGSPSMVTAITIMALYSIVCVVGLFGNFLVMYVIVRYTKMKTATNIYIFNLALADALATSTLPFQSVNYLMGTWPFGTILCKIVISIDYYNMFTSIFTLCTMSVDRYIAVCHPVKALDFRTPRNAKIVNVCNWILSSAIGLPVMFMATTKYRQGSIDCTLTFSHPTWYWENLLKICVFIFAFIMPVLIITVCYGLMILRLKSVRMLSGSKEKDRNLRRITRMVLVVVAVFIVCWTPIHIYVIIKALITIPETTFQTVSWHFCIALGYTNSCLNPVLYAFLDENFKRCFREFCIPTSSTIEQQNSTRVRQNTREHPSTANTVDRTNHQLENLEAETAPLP

As a reminder, the ED50 is the midpoint of the dose-response relation. With `C[C@H]1CN(CC(Cc2ccccc2)C(=O)NCC(=O)OCC(=O)NCc2ccccc2)CC[C@@]1(C)c1cccc(O)c1` (relative stereo) [Example 93], the inhibition at 0.01 µM on mu receptor (setting [2]) worked out at 81%. In addition, the inhibition at 0.1 µM on mu receptor (setting [3]) was 95%. Moreover, in test [1], the “Ratio (AD50 mouse writhing test / ED50 mouse diarrhea test)” value is reported as 3625 and the 50% effect level (ED50) was put at a dose of 0.008 mg/kg. Moreover, the AD50 on opioid receptor came to 29.0.
For the compound `CC(=O)OC(C)OC(=O)CNC(=O)C(Cc1ccccc1)CN1CC[C@@](C)(c2cccc(O)c2)[C@@H](C)C1` (relative stereo) [Example 94], the inhibition at 0.01 µM on mu receptor (setting [2]) was found to be 76%. Moreover, the inhibition at 0.1 µM at mu receptor (setting [3]) stood at 95%. Also, in test [1], the “Ratio (AD50 mouse writhing test / ED50 mouse diarrhea test)” value is given as 2222 and the 50% effect level (ED50) was put at a dose of 0.009 mg/kg. Also, the AD50 at opioid receptor was 20.
Turning to `Cc1oc(=O)oc1COC(=O)CNC(=O)C(Cc1ccccc1)CN1CC[C@@](C)(c2cccc(O)c2)[C@@H](C)C1` (relative stereo) [Example 95], the inhibition at 0.01 µM on mu receptor (setting [2]) was determined as 79%. The inhibition at 0.1 µM at mu receptor (setting [4]) stood at 94%. In addition, in test [1], the “Ratio (AD50 mouse writhing test / ED50 mouse diarrhea test)” value is recorded as 14 and the 50% effect level (ED50) was put at a dose of 0.19 mg/kg. Besides, the AD50 on opioid receptor is listed as 2.7.
On to `CCOC(=O)C(Cc1ccccc1)CN1CC[C@@](C)(c2cccc(OC)c2)[C@@H](C)C1` (single isomer, unassigned) [Example 78B], for which the inhibition at 0.01 µM at mu receptor (setting [2]) was 0%. In addition, on mu receptor (setting [3]), the inhibition at 0.1 µM stood at 2%. For the same compound, in test [1], the “Ratio (AD50 mouse writhing test / ED50 mouse diarrhea test)” value came to 29 and the 50% effective dose (ED50) amounted to 0.055 mg/kg. Further, at opioid receptor, the AD50 is 1.6.
The corresponding values for `COc1cccc([C@]2(C)CCN(CC(Cc3ccccc3)C(=O)O)C[C@@H]2C)c1` (single isomer, unassigned) [Example 79] are 0%, 15%, 13, 0.13 mg/kg and 1.7.
`CNC(=O)C(Cc1ccccc1)CN1CC[C@@](C)(c2cccc(OC)c2)[C@@H](C)C1` (single isomer, unassigned) [Example 80]: the inhibition at 0.01 µM on mu receptor (setting [2]) turned out to be 0%. Moreover, the inhibition at 0.1 µM on mu receptor (setting [3]) stood at 37%. Moreover, in test [1], the “Ratio (AD50 mouse writhing test / ED50 mouse diarrhea test)” value stood at 24 and the 50% effective dose (ED50) was 0.16 mg/kg. The same compound displayed an AD50 at opioid receptor of 3.9.
The corresponding values for `CCOC(=O)CNC(=O)C(Cc1ccccc1)CN1CC[C@@](C)(c2cccc(OC)c2)[C@@H](C)C1` (single isomer, unassigned) [Example 81] are 21%, 55%, 4, 3.28 mg/kg and 13.2.
Regarding `CNC(=O)CNC(=O)C(Cc1ccccc1)CN1CC[C@@](C)(c2cccc(OC)c2)[C@@H](C)C1` (single isomer, unassigned) [Example 82], on mu receptor (setting [2]), the inhibition at 0.01 µM stood at 31%. Moreover, the inhibition at 0.1 µM on mu receptor (setting [3]) is 73%. In test [1], the “Ratio (AD50 mouse writhing test / ED50 mouse diarrhea test)” value was 17 and the ED50 is 0.055 mg/kg. In addition, the AD50 entry on opioid receptor was “.95”.
As to `CCNC(=O)CNC(=O)C(Cc1ccccc1)CN1CC[C@@](C)(c2cccc(OC)c2)[C@@H](C)C1` (single isomer, unassigned) [Example 83], the inhibition at 0.01 µM on mu receptor (setting [2]) turned out to be 52%. For the same compound, the inhibition at 0.1 µM at mu receptor (setting [3]) came to 83%. Further, in test [1], the “Ratio (AD50 mouse writhing test / ED50 mouse diarrhea test)” value is 2 and the ED50 came out at 0.04 mg/kg. On opioid receptor, the AD50 was determined as 0.71.
Regarding `CC(C)COC(=O)CNC(=O)C(Cc1ccccc1)CN1CC[C@](C)(c2cccc(O)c2)[C@H](C)C1` (single isomer, unassigned) [Example 98D], the “% displacement at 100 nM” value on mu receptor worked out at 96%. Moreover, the inhibition at 0.01 µM was 80% at mu receptor (setting [5]) and 57% at mu receptor (setting [6]). Further, at mu receptor (setting [7]), the inhibition at 0.1 µM came out at 92%. The “Ratio (AD50 mouse writhing test / ED50 mouse diarrhea test)” value is 4 in test [1] (listed as 98D*) and 255 in test [1] (listed as 98D**). The “ED50 (diarrhea)” value in test [1] (listed as 98D**) came out at 0.06; in test [1] (listed as 98D*) it was 0.76. Also, the AD50 at opioid receptor (listed as 98D**, 1.25 mg/kg) was 15.3; at opioid receptor (listed as 98D*, 1.25 mg/kg), 2.9.
Consider `C[C@@H]1CN(CC(Cc2ccccc2)C(=O)NCC(=O)O)CC[C@]1(C)c1cccc(O)c1` (single isomer, unassigned) [Example 98E], for which the inhibition at 0.01 µM on mu receptor (setting [5]) is 69%. Further, at mu receptor (setting [4]), the inhibition at 0.1 µM was 87%. Moreover, in test [1], the “Ratio (AD50 mouse writhing test / ED50 mouse diarrhea test)” value is 62 and the 50% effective dose (ED50) is 0.1 mg/kg. The compound further had an AD50 on opioid receptor of 6.2.
The matching figures for `C[C@H]1CN(CC(Cc2ccccc2)C(=O)NCC(=O)O)CC[C@@]1(C)c1cccc(O)c1` (single isomer, unassigned; (+)) [Example 97E, monohydrate]: 80%, 90%, 127, 0.07 mg/kg and 8.9.
What is called Ki is a measure of affinity in units of concentration, obtained from inhibition or displacement. In the case of `C[C@H]1CN(CC(CC2CCCCC2)C(=O)NCCC(=O)O)CC[C@@]1(C)c1cccc(O)c1` (some centres unmarked) [Example 35, 3-[[3-[4-(3-hydroxyphenyl)-3,4-dimethyl-1-piperidinyl]-2-(cyclohexylmethyl)-1-oxopropyl]-amino]propanoic acid hydrochloride], the affinity on mu receptor corresponds to a Ki of 0.54 nM. In addition, the inhibition at 0.01 µM at mu receptor (setting [6]) turned out to be 98%. At mu receptor (setting [7]), the inhibition at 0.1 µM is 100%. Further, in test [1], the “Ratio (AD50 mouse writhing test / ED50 mouse diarrhea test)” value is 667 and the 50% effect level (ED50) was put at a dose of 0.06 mg/kg. For the same compound, at opioid receptor, the AD50 stood at 40.
On to `CCOC(=O)CCNC(=O)C(CC1CCCCC1)CN1CC[C@@](C)(c2cccc(O)c2)[C@@H](C)C1` (some centres unmarked) [Example 36, 3-[[2-(cyclohexylmethyl)-3-[4-(3-hydroxyphenyl)-3,4-dimethyl-1-piperidinyl]-1-oxo-propyl]amino]propanoic acid ethyl ester monohydrochloride], for which, on mu receptor, affinity was put at a Ki of 0.47 nM. Further, the inhibition at 0.01 µM on mu receptor (setting [6]) came out at 79%. Also, at mu receptor (setting [7]), the inhibition at 0.1 µM came to 86%. Moreover, in test [1], the “Ratio (AD50 mouse writhing test / ED50 mouse diarrhea test)” value was 12 and the ED50 is 0.32 mg/kg. Besides, on opioid receptor, the AD50 is on record as 3.8.
Regarding `CCNC(=O)CCNC(=O)C(CC1CCCCC1)CN1CC[C@@](C)(c2cccc(O)c2)[C@@H](C)C1` (some centres unmarked) [Example 37, monohydrochloride], the affinity on mu receptor corresponds to a Ki of 1.09 nM. The inhibition at 0.01 µM on mu receptor (setting [6]) was 93%. In addition, the inhibition at 0.1 µM at mu receptor (setting [4]) turned out to be 97%. In test [1], the “Ratio (AD50 mouse writhing test / ED50 mouse diarrhea test)” value is listed as 43 and it took a dose of 0.09 mg/kg to reach the 50% effect level (ED50). Further, the AD50 at opioid receptor came out at 3.9.
Turning to `C[C@H]1CN(CC(CC2CCCCC2)C(=O)NCCC(N)=O)CC[C@@]1(C)c1cccc(O)c1` (some centres unmarked) [Example 38, 3-[[1-oxo-2-cyclohexylmethyl)-3-[4-(3-hydroxyphenyl)-3,4-dimethyl-1-piperidinyl]propyl]-amino]propanamide hydrochloride], the Ki on mu receptor was determined as 0.48 nM. Further, the inhibition at 0.01 µM at mu receptor (setting [6]) came to 98%. The inhibition at 0.1 µM at mu receptor (setting [7]) was determined as 99%. In test [1], the “Ratio (AD50 mouse writhing test / ED50 mouse diarrhea test)” value was above 667 and the ED50 stood at 0.06 mg/kg. On opioid receptor, the AD50 is on record as above 40.
